In patent US8410112B2, “Compounds useful as inhibitors of ATR kinase” (Vertex Pharmaceuticals Incorporated, priority 2008, dated 2013):

biological target: T1, full-length ATR (Homo sapiens, UniProt Q13535); experiment: ATR Inhibition Assay (radioactive-phosphate incorporation); assay type: biochemical; details: Ki(app); 5 nM full-length ATR, 10 μM ATP, 800 μM target peptide, 25° C.
T1 construct: in the presence of 5 nM full-length ATR
Experimental: Test compounds were screened for their ability to inhibit ATR kinase using a radioactive-phosphate incorporation assay. Assays were carried out in a mixture of 50 mM
Tris/HCl (pH 7.5), 10 mM MgCl2 and 1 mM DTT. Final substrate concentrations were 10 μM [γ-33P]ATP (3 mCi 33 P ATP/mmol ATP, Perkin Elmer) and 800 μM target peptide ([…]). Assays were carried out at 25° C. in the presence of 5 nM full-length ATR. An assay stock buffer solution was prepared containing all of the reagents listed above, with the exception of ATP and the test compound of interest. […] The plate was pre-incubated for 10 minutes at 25° C. and the reaction initiated by addition of 15 μL [γ-33P]ATP (final concentration 10 μM).
The reaction was stopped after […] by the addition of 30 μL 0.1M phosphoric acid containing 2 mM ATP. A multiscreen phosphocellulose filter 96-well plate (Millipore, Cat no. MAPHN0B50) was pretreated with 100 μL 0.2M phosphoric acid prior to the addition of 45 μL of the stopped assay mixture. The plate was washed with 5×200 μL 0.2M phosphoric acid.
After removing mean background values for all of the data points, Ki(app) data were calculated from non-linear regression analysis of the initial rate data using the Prism software package (GraphPad Prism version 3.0cx for Macintosh, GraphPad Software, San Diego Calif., USA).

T1 sequence (Q13535 whole entry): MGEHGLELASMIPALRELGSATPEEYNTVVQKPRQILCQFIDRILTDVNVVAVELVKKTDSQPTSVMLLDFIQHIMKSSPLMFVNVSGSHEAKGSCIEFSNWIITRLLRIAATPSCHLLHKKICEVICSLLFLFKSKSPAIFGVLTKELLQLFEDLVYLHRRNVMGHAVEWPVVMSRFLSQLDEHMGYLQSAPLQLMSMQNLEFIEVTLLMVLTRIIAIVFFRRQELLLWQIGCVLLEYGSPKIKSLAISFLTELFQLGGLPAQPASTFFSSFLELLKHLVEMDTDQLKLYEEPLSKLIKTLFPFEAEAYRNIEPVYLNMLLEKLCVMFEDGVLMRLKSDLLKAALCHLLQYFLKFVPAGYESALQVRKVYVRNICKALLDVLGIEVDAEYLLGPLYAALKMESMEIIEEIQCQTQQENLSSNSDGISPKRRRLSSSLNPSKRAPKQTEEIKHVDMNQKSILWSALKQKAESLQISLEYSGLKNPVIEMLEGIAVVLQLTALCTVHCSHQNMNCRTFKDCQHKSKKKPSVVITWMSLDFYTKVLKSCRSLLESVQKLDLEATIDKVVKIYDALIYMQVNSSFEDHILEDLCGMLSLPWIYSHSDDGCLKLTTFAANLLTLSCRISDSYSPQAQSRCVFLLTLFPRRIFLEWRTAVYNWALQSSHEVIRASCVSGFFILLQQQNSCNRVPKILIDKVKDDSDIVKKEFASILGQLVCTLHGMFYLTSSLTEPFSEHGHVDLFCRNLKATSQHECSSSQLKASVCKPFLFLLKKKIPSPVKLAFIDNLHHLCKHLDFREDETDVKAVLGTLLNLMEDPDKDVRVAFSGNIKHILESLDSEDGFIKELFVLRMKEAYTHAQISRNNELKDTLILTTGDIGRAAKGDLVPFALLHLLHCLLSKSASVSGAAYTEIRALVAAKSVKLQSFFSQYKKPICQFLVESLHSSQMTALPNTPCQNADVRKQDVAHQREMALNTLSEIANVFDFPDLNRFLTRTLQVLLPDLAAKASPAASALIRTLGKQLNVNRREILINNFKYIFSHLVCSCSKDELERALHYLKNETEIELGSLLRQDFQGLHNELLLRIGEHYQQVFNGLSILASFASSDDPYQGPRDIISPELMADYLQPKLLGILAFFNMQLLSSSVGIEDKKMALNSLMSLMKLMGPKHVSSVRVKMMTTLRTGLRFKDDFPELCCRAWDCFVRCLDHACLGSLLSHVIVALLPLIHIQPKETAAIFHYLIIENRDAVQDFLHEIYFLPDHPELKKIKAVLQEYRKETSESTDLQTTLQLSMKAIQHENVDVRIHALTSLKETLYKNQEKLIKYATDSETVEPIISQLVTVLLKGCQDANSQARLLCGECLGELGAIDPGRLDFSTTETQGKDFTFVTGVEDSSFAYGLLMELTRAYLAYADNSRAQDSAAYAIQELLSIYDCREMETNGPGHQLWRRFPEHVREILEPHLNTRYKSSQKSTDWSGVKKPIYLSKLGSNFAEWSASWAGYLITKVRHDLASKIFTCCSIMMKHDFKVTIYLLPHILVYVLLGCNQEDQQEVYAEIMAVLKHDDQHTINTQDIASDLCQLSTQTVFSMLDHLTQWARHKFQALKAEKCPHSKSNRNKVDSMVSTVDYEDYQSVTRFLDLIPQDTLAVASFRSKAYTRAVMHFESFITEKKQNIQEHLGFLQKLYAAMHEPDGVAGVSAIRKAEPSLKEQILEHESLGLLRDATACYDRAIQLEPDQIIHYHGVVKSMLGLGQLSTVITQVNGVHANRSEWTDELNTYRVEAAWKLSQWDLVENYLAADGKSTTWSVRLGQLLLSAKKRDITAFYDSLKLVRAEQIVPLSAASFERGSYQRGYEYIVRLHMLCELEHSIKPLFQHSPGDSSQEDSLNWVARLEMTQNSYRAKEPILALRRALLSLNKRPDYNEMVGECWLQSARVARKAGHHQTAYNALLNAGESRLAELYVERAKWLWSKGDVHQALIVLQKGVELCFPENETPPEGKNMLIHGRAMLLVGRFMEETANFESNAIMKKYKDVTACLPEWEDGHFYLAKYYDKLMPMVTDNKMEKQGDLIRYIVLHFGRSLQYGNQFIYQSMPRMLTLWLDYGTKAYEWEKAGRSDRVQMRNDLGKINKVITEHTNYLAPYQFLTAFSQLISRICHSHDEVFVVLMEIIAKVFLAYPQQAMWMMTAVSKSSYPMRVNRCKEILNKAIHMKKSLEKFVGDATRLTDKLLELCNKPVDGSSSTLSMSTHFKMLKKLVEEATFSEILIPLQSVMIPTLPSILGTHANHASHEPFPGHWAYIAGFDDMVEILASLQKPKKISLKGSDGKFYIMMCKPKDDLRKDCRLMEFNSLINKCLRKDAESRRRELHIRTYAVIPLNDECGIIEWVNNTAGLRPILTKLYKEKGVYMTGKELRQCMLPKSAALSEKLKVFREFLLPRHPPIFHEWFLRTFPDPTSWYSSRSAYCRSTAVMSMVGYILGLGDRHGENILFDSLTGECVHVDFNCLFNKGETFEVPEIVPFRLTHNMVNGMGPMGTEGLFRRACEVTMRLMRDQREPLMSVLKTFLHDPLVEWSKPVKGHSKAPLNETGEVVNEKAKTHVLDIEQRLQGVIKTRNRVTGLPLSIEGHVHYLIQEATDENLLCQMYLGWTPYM

| SMILES | Ki [nM] |
| --- | --- |
| Nc1ncc(C2=CCN(C(=O)c3cccnc3)CC2)nc1-c1nc2ccccc2[nH]1 [Compound I-191] | 100 to 1000 |
| CC(=O)N1CC=C(c2cnc(N)c(-c3nnc(-c4ccccc4)o3)n2)CC1 [Compound I-125, 1-(4-(5-amino-6-(5-phenyl-1,3,4-oxadiazol-2-yl)pyrazin-2-yl)-5,6-dihydropyridin-1(2H)-yl)ethanone] | < 100 |
| CC(C)C(=O)N1CCN(c2cnc(N)c(-c3nnc(-c4ccccc4)o3)n2)CC1 [Compound I-190, 1-(4-(5-amino-6-(5-phenyl-1,3,4-oxadiazol-2-yl)pyrazin-2-yl)piperazin-1-yl)-2-methylpropan-1-one] | 100 to 1000 |
| CCOC(=O)N1CCN(c2cnc(N)c(C(=O)Nc3ccccn3)n2)CC1 [Compound I-113, ethyl 4-(5-amino-6-(pyridin-2-ylcarbamoyl)pyrazin-2-yl)piperazine-1-carboxylate] | 1000 to 10000 |
| Cc1ccc2nc(-c3nc(N4CCC(N(C)C)CC4)cnc3N)[nH]c2c1 [Compound I-49, 5-(4-(dimethylamino)piperidin-1-yl)-3-(6-methyl-1H-benzo[d]imidazol-2-yl)pyrazin-2-amine] | 1000 to 10000 |
| Nc1ncc(N2CC[C@H](NC(=O)C3CCCC3)C2)nc1-c1nc2ccccc2[nH]1 [Compound I-204, (S)-N-(1-(5-amino-6-(1H-benzo[d]imidazol-2-yl)pyrazin-2-yl)pyrrolidin-3-yl)cyclopentanecarboxamide] | 100 to 1000 |
| Nc1ncc(C2=CCN(S(=O)(=O)c3cccnc3)CC2)nc1-c1nnc(-c2ccccc2)o1 [Compound I-222, 3-(5-phenyl-1,3,4-oxadiazol-2-yl)-5-(1-(pyridin-3-ylsulfonyl)-1,2,3,6-tetrahydropyridin-4-yl)pyrazin-2-amine] | < 100 |
| Nc1ncc(N2CCN(C(=O)C3CCC3)CC2)nc1-c1nc2ccccc2[nH]1 [Compound I-174, (4-(5-amino-6-(1H-benzo[d]imidazol-2-yl)pyrazin-2-yl)piperazin-1-yl)(cyclobutyl)methanone] | 1000 to 10000 |
| CC(=O)N[C@@H]1CCN(c2cnc(N)c(-c3nc4ccc(C)cc4[nH]3)n2)C1 [Compound I-9, (R)-N-(1-(5-amino-6-(6-methyl-1H-benzo[d]imidazol-2-yl)pyrazin-2-yl)pyrrolidin-3-yl)ethanamide] | 1000 to 10000 |
| Nc1ncc(C2=CCN(S(=O)(=O)Cc3ccccc3)CC2)nc1-c1nnc(-c2ccccc2)o1 [Compound I-100, 5-(1-(benzylsulfonyl)-1,2,3,6-tetrahydropyridin-4-yl)-3-(5-phenyl-1,3,4-oxadiazol-2-yl)pyrazin-2-amine] | < 100 |
| Nc1ncc(N2CCN(C(=O)N3CCOCC3)CC2)nc1C(=O)Nc1ccccn1 [Compound I-114, 3-amino-6-(4-(morpholine-4-carbonyl)piperazin-1-yl)-N-(pyridin-2-yl)pyrazine-2-carboxamide] | 1000 to 10000 |
| Cc1ccc2nc(-c3nc(N4CCC(CO)CC4)cnc3N)[nH]c2c1 [Compound I-2, (1-(5-amino-6-(6-methyl-1H-benzo[d]imidazol-2-yl)pyrazin-2-yl)piperidin-4-yl)methanol] | 1000 to 10000 |
| Nc1ncc(N2CCN(S(=O)(=O)c3cccs3)CC2)nc1-c1nc2ccccc2[nH]1 [Compound I-104, 3-(1H-benzo[d]imidazol-2-yl)-5-(4-(thiophen-2-ylsulfonyl)piperazin-1-yl)pyrazin-2-amine] | 100 to 1000 |
| Nc1ncc(N2CCN(S(=O)(=O)Cc3ccccc3)CC2)nc1-c1nc2ccccc2[nH]1 [Compound I-106, 3-(1H-benzo[d]imidazol-2-yl)-5-(4-(benzylsulfonyl)piperazin-1-yl)pyrazin-2-amine] | 100 to 1000 |
| Nc1ncc(N2CC[C@H](NC(=O)c3cccnc3)C2)nc1-c1nc2ccccc2[nH]1 [Compound I-188, (S)-N-(1-(5-amino-6-(1H-benzo[d]imidazol-2-yl)pyrazin-2-yl)pyrrolidin-3-yl)pyridine-3-carboxamide] | 100 to 1000 |
| CC(=O)N[C@H]1CCN(c2cnc(N)c(-c3nc4ccccc4[nH]3)n2)C1 [Compound I-185, (S)-N-(1-(5-amino-6-(1H-benzo[d]imidazol-2-yl)pyrazin-2-yl)pyrrolidin-3-yl)ethanamide] | 100 to 1000 |
| CCS(=O)(=O)N1CC=C(c2cnc(N)c(C(=O)Nc3nc4ccccc4[nH]3)n2)CC1 [Compound I-172, 3-amino-N-(1H-benzo[d]imidazol-2-yl)-6-(1-(ethylsulfonyl)-1,2,3,6-tetrahydropyridin-4-yl)pyrazine-2-carboxamide] | < 100 |
| COCCOCC(=O)N1CC=C(c2cnc(N)c(-c3nnc(-c4ccccc4)o3)n2)CC1 [Compound I-135, 1-(4-(5-amino-6-(5-phenyl-1,3,4-oxadiazol-2-yl)pyrazin-2-yl)-5,6-dihydropyridin-1(2H)-yl)-2-(2-methoxyethoxy)ethanone] | < 100 |
| CS(=O)(=O)N1CCN(c2cnc(N)c(C(=O)Nc3ccccn3)n2)CC1 [Compound I-219, 3-amino-6-(4-(methylsulfonyl)piperazin-1-yl)-N-(pyridin-2-yl)pyrazine-2-carboxamide] | 100 to 1000 |
| CN(C)CC(=O)N1CC=C(c2cnc(N)c(-c3nc4ccccc4[nH]3)n2)CC1 [Compound I-186, 1-(4-(5-amino-6-(1H-benzo[d]imidazol-2-yl)pyrazin-2-yl)-5,6-dihydropyridin-1(2H)-yl)-2-(dimethylamino)ethanone] | 100 to 1000 |
| COc1cccc(N2CCN(c3cnc(N)c(-c4nc5ccc(C)cc5[nH]4)n3)CC2)c1 [Compound I-48, 5-(4-(3-methoxyphenyl)piperazin-1-yl)-3-(6-methyl-1H-benzo[d]imidazol-2-yl)pyrazin-2-amine] | 100 to 1000 |

Second part, the compound after the results:

| Ki [nM] | SMILES |
| --- | --- |
| < 100 | CCS(=O)(=O)N1CCN(c2cnc(N)c(-c3nnc(-c4ccc(CNC)cc4)o3)n2)C[C@@H]1C [Compound I-345, 5-[(35)-4-Ethylsulfonyl-3-methyl-piperazin-1-yl]-3-[5-[4-(methylaminomethyl)phenyl]-1,3,4-oxadiazol-2-yl]pyrazin-2-amine] |
| 1000 to 10000 | Nc1ncc(N2CCN(C(=O)C3CCOCC3)CC2)nc1C(=O)Nc1ccccn1 [Compound I-230, 3-amino-N-(pyridin-2-yl)-6-(4-(tetrahydro-2H-pyran-4-carbonyl)piperazin-1-yl)pyrazine-2-carboxamide] |
| 100 to 1000 | CNCc1ccc(-c2nnc(-c3nc(C4CC4C(=O)NCC(O)CO)cnc3N)o2)cc1 (stereo not drawn) [Compound I-376, 2-[5-Amino-6-[5-[4-(methylaminomethyl)phenyl]-1,3,4-oxadiazol-2-yl]pyrazin-2-yl]-N-(2,3-dihydroxypropyl)cyclopropanecarboxamide] |
| 100 to 1000 | CS(=O)(=O)CCN1CCN(c2cnc(N)c(-c3nnc(-c4ccccc4)o3)n2)CC1 [Compound I-296, 5-[4-(2-methylsulfonylethyl)piperazin-1-yl]-3-(5-phenyl-1,3,4-oxadiazol-2-yl)pyrazin-2-amine] |
| 100 to 1000 | CN(C)[C@@H]1CCN(C(=O)N2CC=C(c3cnc(N)c(-c4nc5ccccc5[nH]4)n3)CC2)C1 [Compound I-278, (R)-(4-(5-amino-6-(1H-benzo[d]imidazol-2-yl)pyrazin-2-yl)-5,6-dihydropyridin-1(2H)-yl)(3-(dimethylamino)pyrrolidin-1-yl)methanone] |
| < 100 | COC(=O)N1CC=C(c2cnc(N)c(-c3nnc(-c4ccccc4)o3)n2)CC1 [Compound I-228, methyl 4-(5-amino-6-(5-phenyl-1,3,4-oxadiazol-2-yl)pyrazin-2-yl)-5,6-dihydropyridine-1(2H)-carboxylate] |
| 100 to 1000 | CCS(=O)(=O)N1CC2CN(c3cnc(N)c(-c4nnc(-c5ccccc5)o4)n3)CC2C1 (stereo not drawn) [Compound I-305, 5-(2-ethylsulfonyl-1,3,3a,4,6,6a-hexahydropyrrolo[3,4-c]pyrrol-5-yl)-3-(5-phenyl-1,3,4-oxadiazol-2-yl)pyrazin-2-amine] |
| 100 to 1000 | Nc1ncc(N2Cc3ccccc3C2=O)nc1-c1nc2ccccc2[nH]1 [Compound I-304, 2-[5-amino-6-(1H-benzimidazol-2-yl)pyrazin-2-yl]isoindolin-1-one] |
| 100 to 1000 | Nc1ncc(N2CC=C(C(=O)O)CC2)nc1-c1nnc(-c2ccccc2)o1 [Compound I-288, 1-[5-amino-6-(5-phenyl-1,3,4-oxadiazol-2-yl)pyrazin-2-yl]-3,6-dihydro-2H-pyridine-4-carboxylic acid] |
| 100 to 1000 | Nc1ncc(N2C[C@@H]3CCC(=O)[C@@H]3C2)nc1-c1nnc(-c2ccccc2)o1 [Compound I-319, (3aS,6aR)-2-(5-Amino-6-(5-phenyl-1,3,4-oxadiazol-2-yl)pyrazin-2-yl)hexahydrocyclopenta[c]pyrrol-4(5H)-one] |
| 100 to 1000 | Nc1ncc(C2=CCN(C(=O)N3CCOCC3)CC2)nc1-c1nc2ccccc2[nH]1 [Compound I-227, (4-(5-amino-6-(1H-benzo[d]imidazol-2-yl)pyrazin-2-yl)-5,6-dihydropyridin-1(2H)-yl)(morpholino)methanone] |
| 100 to 1000 | Nc1ncc(N2CCN(S(=O)(=O)Cc3ccccc3)CC2)nc1C(=O)Nc1ccccn1 [Compound I-253, 3-amino-6-(4-(benzylsulfonyl)piperazin-1-yl)-N-(pyridin-2-yl)pyrazine-2-carboxamide] |
